Source: patent US20250034139A1, “AMINE COMPOUNDS HAVING ANTI-INFLAMMATORY, ANTIFUNGAL, ANTIPARASITIC, AND ANTICANCER ACTIVITY” (PHARMA CINQ, LLC, priority 2013, published 2025)
≈ marks a conversion by molar mass, not a printed value.

Key:
[1] = tested on: PC3 human prostate cancer cells; test: Example S: in vitro anticancer screen, PC-3 cells, Wst1; assay type: cell-based; details: Homo sapiens, PC-3, approximately 20 hours, Wst1, read-out: PC-3, percent of cancer cell survival relative to vehicle treated cells
Method in brief: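 Values give percent survival relative to vehicle, read by Wst1 absorbance (450/630 nm) after 2 h dye incubation, in triplicate. Cells were seeded at 2×10^4/well and treated about 20 h with compound at 0.4, 0.5 or 2.5 μM, depending on compound.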

[2] = tested on: 4T1 murine breast cancer cells; test: Example S: in vitro anticancer screen, 4T1 cells, Wst1; assay type: cell-based, mouse; details: Mus musculus, 4T1, 18 h, 18 hr, Wst1; for viability at 1 µM: read-out: 4T1 1 μM, percent of cancer cell survival relative to vehicle treated cells; for viability at 5 µM: read-out: 4T1 5 μM, percent of cancer cell survival relative to vehicle treated cells
Method in brief: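 Read-out is Wst1 absorbance (450 nm, reference 630 nm) after roughly 2 hr dye incubation, giving percent cell survival versus vehicle. Before that, compounds at 1 μM or 5 μM were applied for 18 hr to 4T1 cells plated at 1×10^4 per well.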

[3] = tested on: PC-3 prostate cancer cells; test: Example T: sensitisation of PC-3 cells to doxorubicin, oxaliplatin, paclitaxel or vincristine, Wst1; assay type: cell-based, human; details: PC-3 cells, 72 hours; for viability at 0.4 µM / viability at 2.5 µM: Homo sapiens, Wst1, vehicle = 100, read-out: No Chemo: percent cell survival; for viability at 0.4 µM: compound 0.4 μM alone; for Doxorubicin 3.5 μM: percent cell survival / Oxaliplatin 100 μM: percent cell survival / Paclitaxel 50 μM: percent cell survival / Vincristine 100 nM: percent cell survival: chemotherapy agent alone normalized to 100%; for viability at 2.5 µM: compound 2.5 μM alone
[4] = tested on: THP-1 cells; test: Example D: LPS-triggered THP-1 cell death assay, acute/5-hour and chronic/48-hour; assay type: cell-based, Human; details: for Viable cell percent change, Chronic/48-hour, Mean: 10 ng/ml LPS, 0.1 μM test compound; for activity relative to AC in the LPS-triggered THP-1 cell death assay, in words: 0.1 μM, 5-hour and 48-hour time points
Method: Compounds of the invention were tested at 0.1 μM versus AC in the LPS-triggered THP-1 cell death assay. Both acute/5-hour and chronic/48-hour phases of cell death were assessed. Compounds were screened in batches with DMSO as the negative control and AC as the high activity control.

[5] = tested on: Cryptococcus neoformans (serotype D); test: Example K: Cryptococcus neoformans (serotype D) growth inhibition; assay type: cell-based; details: Cryptococcus deneoformans, OD of 48 hour reading, 37° C., tested 4 to 60 μM, XLfit
Method: Cryptococcus neoformans (serotype D) were plated in 96 well plates with 144 μl/well of 8×10e5 CFU/ml in YM growth medium. Diluted compounds were then added to each well with concentration ranged from 4 to 60 μM as final concentration in duplicates. The plates were inoculated at 37° C. for total of 48 hours. Two readings of OD at 600 nm were measured after 30 and 48 hour treatments.
• 1. Pick a single colony of Cryptococcus from the YM agar plate using the inoculum loop and inoculate into a 125 ml flask containing 25 ml of YM growth medium. • 2. Incubate at 37° C. with shaking at 220 rpm for 24 hours with loosen lid to allow air in and facilitates growth. • 3. Examine an aliquot of the culture under a microscope for yeast cell morphology and lack of bacterial contamination. • 4. Dilute the overnight culture with YM medium at 1:100 dilution and count the number of cells as 1×10^6 cfu/ml. • 5. Make a final concentration of cells suspension at 8×10^5 cfu/ml in YM medium. • 6. Plate 144 μl/well of 8×10^5 cfu/ml cell suspension on 96-well plates. Part-II: Cryptococcus Growth Inhibition Testing with Compounds • 1. From 10 mM DMSO stock solutions, make serial dilutions of compounds to 0.1, 0.2, 0.3, 0.5, 1.0 and 1.5 mM solution. • 2. Add 6 ul each of diluted compound solutions per well in duplicates. The final concentrations were 0, 4, 8, 12, 20, 40 and 60 micromolar. • 3. Incubated all plates at 37° C. overnight (30 hours) with 150 rpm shaking. • 4. Read absorbance at OD600 for each plate. • 5. Leave plates in 37° C. incubator for another day and read absorbance at OD600 again at 48 hours to ensure the inhibitory effect of the compounds. • 6. Calculated the % inhibition and IC50 of each compound against untreated cells.

[6] = tested on: Candida albicans strain 3153; test: Example H: Candida albicans growth inhibition (OD 600 nm); assay type: cell-based; details: for MIC: Candida albicans, 3153, 24 hrs at 30° C., YPD, XLfit, read-out: MIC (uM) (99% of inhibition of fungal growth); for IC50: Candida albicans, 3153, read-out: IC50 (uM) (50% inhibition of fungal growth), 24 hrs at 30° C., YPD, XLfit
Method: A single colony of Candida Albicans was grown in 50 ml YPD broth overnight (19 hr). The cells were washed with PBS and 3.5×10^4 CFU/ml of C. Albicans (144 μl/well) in YPD medium were plated in 96 well plates. Test compounds were then added to each well with concentration ranged from 5 to 40 μM as final concentrations. The plates were incubated at 30° C. overnight (24 hrs) and OD at 600 nm was read at the end of incubation as an index of yeast cell density.
Part-I: Preparation of Candida albicans Cells • 1. One day prior to the inoculum preparation, pick a single colony of Candida albicans strain 3153 (lot #61794) from the Sabouraud Dextrose Agar plate using the inoculum loop and inoculate into a 250 mL flask containing 50 ml of YPD growth medium • 2. Incubate at 30° C. with shaking at 150 rpm for at least 18 hours with loosened lid to allow air in and facilitate growth. • 3. Examine an aliquot of the culture under a microscope for Candida cell morphology and lack of bacterial contamination; >95% of Candida cells should be blastoconidia. • 4. Transfer 25 ml the overnight culture into a 50-ml plastic disposable centrifuge tube, and centrifuge at 1000×g for 20 min. • 5. Discard the supernatant and wash the pellet with 4 ml of PBS at three times. Vortex and centrifuge, 1000×g for 10 min. • 6. After the third wash, dispense the pellet with 2 ml PBS and vortex. • 7. Make three 1:10 serial dilutions in sterile PBS (10^−1, 10^−2, 10^−3) from the 2 ml cell suspension using 15 ml culture tubes. The final volume in each tube is 5 ml. • 8. […] Make a 1:4 dilution in YPD medium from the 50-fold dilution of 10^−3 cell suspension for testing compounds. • The final C. albicans cell concentration for the test: 3.5×10^4 CFU/ml • 10. Plated 144 ul/well of the above dilution of cell on 96-well plates. Part-II: C. Albicans Growth Inhibition Testing with Compounds • 1. From 10 mM DMSO stock solutions, make serial dilutions of compounds to 0.13, 0.25, 0.40, 0.55, 0.75 and 1.0 mM solutions • 2. Add 6 ul each of diluted compound solutions per well in duplicates. The final concentrations were 0, 5, 10, 16, 22, 30 and 40 micromolar. • 3. Incubated all plates at 30 C for overnight (˜24 hours). • 4. Read absorbance at OD600 for each plate. • 5. Calculate the % inhibition of each compound against the DMSO treated cell.

[7] = compound 0.4 μM + doxorubicin 3.5 μM
[8] = compound 0.4 μM + oxaliplatin 100 μM
[9] = compound 0.4 μM + paclitaxel 50 μM
[10] = compound 0.4 μM + vincristine 100 nM
[11] = compound 2.5 μM + doxorubicin 3.5 μM
[12] = compound 2.5 μM + oxaliplatin 100 μM
[13] = compound 2.5 μM + paclitaxel 50 μM
[14] = compound 2.5 μM + vincristine 100 nM

Structure (SMILES) | IC50 ([5]; read-out: IC50 (concentration for 50% of inhibition)) [µM] | MIC ([5]; read-out: MIC (concentration for maximum-99% of inhibition)) [µM] | MIC [6] [µM] | IC50 [6] [µM] | viability at 0.4 µM [1] [%] | viability at 1 µM [2] [%] | viability at 5 µM [2] [%] | viability at 0.4 µM [3] [%] | Doxorubicin 3.5 μM: percent cell survival [3, 7] [%] | Oxaliplatin 100 μM: percent cell survival [3, 8] [%] | Paclitaxel 50 μM: percent cell survival [3, 9] [%] | Vincristine 100 nM: percent cell survival [3, 10] [%] | Viable cell percent change, Chronic/48-hour, Mean [4] [%] | activity relative to AC in the LPS-triggered THP-1 cell death assay, in words [4] | viability at 2.5 µM [1] [%] | viability at 2.5 µM [3] [%] | Doxorubicin 3.5 μM: percent cell survival [3, 11] [%] | Oxaliplatin 100 μM: percent cell survival [3, 12] [%] | Paclitaxel 50 μM: percent cell survival [3, 13] [%] | Vincristine 100 nM: percent cell survival [3, 14] [%]
COc1ccc(OCCCCCCCCNc2ccnc3ccccc23)cc1 [AD, N-[8-(4-Methoxyphenoxy)octyl]quinolin-4-amine] | 3.98 | 45.2 (≈ 17.1 µg/mL) |  |  | 54.7 | 21.6 | 51.1 | 54.7 | 23.9 | 23.1 | 46.1 | 46.7 | 26.01 | equivalent activity to AC at both the 5-hour and 48-hour time points |  |  |  |  |  | 
c1ccc(OCCCCCCNc2ccnc3ccccc23)cc1 [AR, N-(6-Phenoxyhexyl)quinolin-4-amine] |  |  | 69.8 (≈ 22.4 µg/mL) | 46.1 | 57 | 25.4 | 47 | 57 | 22.4 | 24.1 | 54.1 | 24.2 | 28.75 | equivalent activity to AC at both the 5-hour and 48-hour time points |  |  |  |  |  | 
CCCCCCOCCCOCCCCCNc1ccnc2ccccc12 [BB, N-{5-[3-(Hexyloxy)propoxy]pentyl}quinolin-4-amine] |  |  | 99.7 (≈ 37.1 µg/mL) | 50.9 |  | 59.6 | 41.1 |  |  |  |  |  | 0.65 |  | 16.3 | 16.3 | 20.4 | 24.7 | 25 | 17.2
COc1cccc(OCCCCCCCCNc2ccnc3ccccc23)c1 [BH, N-[8-(3-Methoxyphenoxy)octyl]quinolin-4-amine] |  |  | 30.1 (≈ 11.4 µg/mL) | 18.1 | 98.5 | 21 | 19.3 | 98.5 | 35.7 | 30.6 | 61 | 71.6 | 34.77 | equivalent activity to AC at both the 5-hour and 48-hour time points |  |  |  |  |  | 

Now from value to compound, other results behind:

IC50 ([5]; read-out: IC50 (concentration for 50% of inhibition)) [µM] | MIC ([5]; read-out: MIC (concentration for maximum-99% of inhibition)) [µM] | MIC [6] [µM] | IC50 [6] [µM] | Structure (SMILES) | viability at 0.4 µM [1] [%] | viability at 1 µM [2] [%] | viability at 5 µM [2] [%] | viability at 0.4 µM [3] [%] | Doxorubicin 3.5 μM: percent cell survival [3, 7] [%] | Oxaliplatin 100 μM: percent cell survival [3, 8] [%] | Paclitaxel 50 μM: percent cell survival [3, 9] [%] | Vincristine 100 nM: percent cell survival [3, 10] [%] | Viable cell percent change, Chronic/48-hour, Mean [4] [%] | activity relative to AC in the LPS-triggered THP-1 cell death assay, in words [4] | viability at 2.5 µM [1] [%] | viability at 2.5 µM [3] [%] | Doxorubicin 3.5 μM: percent cell survival [3, 11] [%] | Oxaliplatin 100 μM: percent cell survival [3, 12] [%] | Paclitaxel 50 μM: percent cell survival [3, 13] [%] | Vincristine 100 nM: percent cell survival [3, 14] [%]
 |  | 113 (≈ 40.7 µg/mL) | 43.2 | CCOCCCOCCCCCCCCNc1ccnc2ccccc12 [AJ, N-[8-(3-Ethoxypropoxy)octyl]quinolin-4-amine] | 18.5 | 22.4 | 21.1 | 18.5 | 33.1 | 22.5 | 20.8 | 20.1 |  | equivalent activity to AC at both the 5-hour and 48-hour time points |  |  |  |  |  | 
 |  | 108 (≈ 40.1 µg/mL) | 45.7 | CCCCCCOCCCCCOCCCNc1ccnc2ccccc12 [BC, N-{3-[5-(Hexyloxy)pentyloxy]propyl}quinolin-4-amine] |  | 96.9 | 47.2 |  |  |  |  |  | 6.40 |  | 26 | 26 | 32.6 | 32.3 | 29.8 | 28.9
 |  | 134 (≈ 48 µg/mL) | 37.5 | CCCOCCOCCCCCCCCNc1ccnc2ccccc12 [BD, N-[8-(2-Propoxyethoxy)octyl]quinolin-4-amine] | 29.3 | 25.5 | 27.7 | 29.3 | 66.1 | 61.3 | 28.4 | 33.3 |  | equivalent activity to AC at both the 5-hour and 48-hour time points |  |  |  |  |  | 
